The results in this text go back to patent US5102897A, “3,5-ditertiarybutyl-4-hydroxyphenyl, 1,3,4-thiadiazoles and oxadiazoles linked by carbon, oxygen, and sulfur residues” (Warner-Lambert Company, priority 1991, dated 1992).

For one assay, the target named is T1, Cyclooxygenase (Rattus norvegicus, UniProt Q63921).
T1 construct: host or cells: RBL-1 (rat basophilic leukemia)
T1 sequence (Q63921 27-602): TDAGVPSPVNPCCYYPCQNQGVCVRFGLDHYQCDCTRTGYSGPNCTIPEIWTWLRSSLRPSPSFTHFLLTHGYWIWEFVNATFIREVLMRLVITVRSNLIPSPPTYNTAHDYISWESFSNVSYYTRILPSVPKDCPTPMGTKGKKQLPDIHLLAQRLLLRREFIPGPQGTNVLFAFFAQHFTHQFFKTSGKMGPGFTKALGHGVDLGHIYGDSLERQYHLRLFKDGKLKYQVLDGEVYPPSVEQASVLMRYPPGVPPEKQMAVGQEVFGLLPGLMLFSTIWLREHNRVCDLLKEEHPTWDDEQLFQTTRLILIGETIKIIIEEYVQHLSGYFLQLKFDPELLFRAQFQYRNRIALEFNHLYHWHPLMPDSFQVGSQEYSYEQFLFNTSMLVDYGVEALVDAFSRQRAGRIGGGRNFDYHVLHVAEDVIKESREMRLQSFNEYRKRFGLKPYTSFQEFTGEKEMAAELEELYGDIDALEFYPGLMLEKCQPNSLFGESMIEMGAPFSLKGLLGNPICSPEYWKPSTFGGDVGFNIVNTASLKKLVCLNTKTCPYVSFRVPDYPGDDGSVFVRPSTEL
Description: ARBC whole cell cyclooxygenase assay (RBL-1 cells, PGF2α formation, RIA). Type of assay: cell-based. Conditions: RBL-1 whole cells; for IC50: calcium ionophore A23187 (5 μM), read-out: ARBC: IC50 for PGF2α inhibition; for inhibition at 10 µM: read-out: ARBC: Percent inhibition of PGF2α @ 10 μM. As to the method: (§1) ARBL/ARBC Whole Cell 5-Lipoxygenase and Cyclooxygenase Assays
(§2) The rat basophilic leukemia cell line (RBL-1) was obtained from the American Type Culture Collection (Rockville, MD).
(§3) Radioimmunoassay (RIA) kits of LTB4 and PGF2.sbsb.α were obtained from Amersham (Arlington Heights, Ill.) and Seragen (Boston, Mass.), respectively.
(§4) RBL-1 cells are grown in suspension culture in Eagle's minimum essential medium supplemented with 12% fetal bovine serum at 37° C. in an incubator supplied with air-5% carbon dioxide. Cells are harvested by centrifugation. They are washed with cold phosphate buffered saline pH 7.4 (PBS; NaCl, 7.1 g; Na2 HPO4, 1.15 g; KH2 PO4, 0.2 g; and KCl, 0.2 g/L). Cells are finally suspended in PBS containing 1.0 mM calcium at a density of 2×10^6 cells/mL. Cells are incubated with and without test agent (in DMSO) (1% DMSO is without effect on arachidonic acid metabolism) for ten minutes at room temperature. Calcium ionophore A23187 (5 μM) is added and cells are incubated for 7 minutes at 37° C. The reaction is stopped by chilling the tubes on ice for 10 minutes. Cells are separated by centrifugation and the supernatant is stored at -20° C. Aliquots (100 μL) are analyzed for LTB4 and PGF2.sbsb.α using radioimmunoassay kits as provided by the supplier.
(§5) Table 1 contains biochemical data obtained from this whole cell assay as IC50 s which are calculated as the amount of test compound causing 50% inhibition or percent of inhibition at the named micromoles (μM) of LTB4 or PGF2.sbsb.α formation.

A further assay concerns the target T2, 5-Lipoxygenase (Rattus norvegicus, UniProt P12527).
T2 construct: host or cells: RBL-1 (rat basophilic leukemia)
T2 sequence (P12527 1-673): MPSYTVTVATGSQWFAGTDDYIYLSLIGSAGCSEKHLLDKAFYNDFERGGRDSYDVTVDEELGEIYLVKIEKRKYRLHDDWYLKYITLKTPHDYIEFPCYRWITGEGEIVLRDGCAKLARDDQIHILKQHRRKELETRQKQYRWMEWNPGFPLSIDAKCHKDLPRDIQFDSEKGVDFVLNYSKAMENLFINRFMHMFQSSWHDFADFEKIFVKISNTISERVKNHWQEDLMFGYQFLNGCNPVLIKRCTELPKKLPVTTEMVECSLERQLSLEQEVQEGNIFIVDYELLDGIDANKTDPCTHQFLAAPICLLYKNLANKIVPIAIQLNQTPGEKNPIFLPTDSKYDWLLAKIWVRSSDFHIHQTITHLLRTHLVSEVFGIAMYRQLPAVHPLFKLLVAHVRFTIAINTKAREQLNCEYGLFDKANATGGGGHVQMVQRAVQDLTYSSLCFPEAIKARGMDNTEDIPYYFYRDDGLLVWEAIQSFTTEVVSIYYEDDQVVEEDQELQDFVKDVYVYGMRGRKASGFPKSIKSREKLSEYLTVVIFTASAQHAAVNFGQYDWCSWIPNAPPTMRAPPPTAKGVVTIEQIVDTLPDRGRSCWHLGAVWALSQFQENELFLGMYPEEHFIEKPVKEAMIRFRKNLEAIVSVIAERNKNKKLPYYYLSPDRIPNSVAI
Description: ARBL whole cell 5-lipoxygenase assay (RBL-1 cells, LTB4 formation, RIA). Type of assay: cell-based. The conditions noted are these: RBL-1 whole cells; for IC50: calcium ionophore A23187 (5 μM), read-out: ARBL: IC50 for LTB4 inhibition; for inhibition at 10 µM / inhibition at 16 µM: A23187, read-out: ARBL: Percent inhibition of LTB4 @ μM noted. As to the method: as §1, §2, §3, §4, §5

The subject of assay [1] is Carrageenan-Induced Rat Foot Paw Edema. Kind of assay: Carrageenan-Induced Rat Foot Paw Edema-2 (CFE-2) Assay. Type of assay: in vivo. The conditions noted are these: dosed 1 hour before carrageenan, edema measured 5 hours after, probit analysis, read-out: CFE: ID40 for inhibition of swelling. As for the experimental part:
Carrageenan-Induced Rat Foot Paw Edema-2 (CFE-2) Assay: Protocol
Carrageenan solution (1% w/v) is prepared by dissolving 100 mg carrageenan (Marine Colloidal Div., Springfield, N.J.) in 10 mL of sterile saline (0.9) solution (Travenol). The solution is vortexed for 30 to 45 minutes. Animals are dosed with compound 1 hour before carrageenan challenge. Foot paw edema is induced by injecting 0.10 mL of the 1% carrageenan subcutaneously into the plantar portion of the right hind paw of each rat under light anesthesia. Initial foot paw volume is measured immediately following carrageenan challenge using mercury plethysmography (Buxco Electronics). Edema is measured 5 hours after carrageenan. The difference between the 5-hour and the initial paw volume is expressed as delta edema. The delta edema for each test group of animals is used to calculate the percent inhibition of edema achieved by the compound at the test dose compared with the vehicle control group. The data in Table 1 (the dose at which swelling is inhibited by the noted) is calculated by probit analysis for the dose at which percent inhibition occurs.
(In general: The carrageenan paw model is a standard test of acute inflammation.)

As to `CC(C)(C)c1cc(Sc2n[nH]c(=S)o2)cc(C(C)(C)C)c1O` [Example 7, 5-[[3,5-Bis(1,1-dimethylethyl)-4-hydroxyphenyl]thio]-1,3,4-oxadiazole-2(3H)-thione], the IC50 at Cyclooxygenase is 1500 nM; on 5-Lipoxygenase, 2000 nM. The ED40 in assay [1] was found to be 8.6 mg/kg.
As for `CC(C)(C)c1cc(CCc2nnc(N)o2)cc(C(C)(C)C)c1O` [Example 26, 4-[2-(5-Amino-1,3,4-oxadiazol-2-yl)ethyl]-2,6-bis(1,1-dimethylethyl)phenol], at 5-Lipoxygenase, the inhibition at 10 µM stood at 40%.
Turning to `CSc1nnc(C(=O)c2cc(C(C)(C)C)c(O)c(C(C)(C)C)c2)s1` [Example 30], the inhibition at 10 µM at Cyclooxygenase (A23187) and at 5-Lipoxygenase was 100% in each case.
On to `CC(C)(C)c1cc(Sc2n[nH]c(=O)s2)cc(C(C)(C)C)c1O` [Example 8, 5[[3,5-Bis(1,1-dimethylethyl)-4-hydroxyphenyl]thio]-1,3,4-thiadiazol-2(3H)-one], for which the inhibition at 16 µM at 5-Lipoxygenase came out at 90%.
For `CC(C)(C)c1cc(CCc2nnco2)cc(C(C)(C)C)c1O` [Example 25, 2,6-Bis(1,1-dimethylethyl)-4-[2-(1,3,4-oxadiazol-2-yl)ethyl]phenol], the inhibition at 10 µM at Cyclooxygenase (A23187) is 52%; on 5-Lipoxygenase, 100%.
On to `CC(C)(C)c1cc(Sc2nncs2)cc(C(C)(C)C)c1O` [Example 10, 2,6-Bis(1,1-dimethylethyl)-4-[(1,3,4-thiadiazol-2-yl)thio]-phenol], for which the inhibition at 10 µM at Cyclooxygenase (A23187) turned out to be 54%; on 5-Lipoxygenase, 59%.
Regarding `CC(C)(C)c1cc(SCCc2nnco2)cc(C(C)(C)C)c1O` [Example 15], the inhibition at 10 µM turned out to be 55% on Cyclooxygenase (A23187) and 100% at 5-Lipoxygenase.
With `CC(C)(C)c1cc(CCc2n[nH]c(=O)o2)cc(C(C)(C)C)c1O` [Example 23, 5-[2-[3,5-bis(1,1-dimethylethyl)-4-hydroxyphenyl]ethyl]-1,3,4-oxadiazol-2(3H)-one], the inhibition at 10 µM at 5-Lipoxygenase is 60%.
In the case of `CC(C)(C)c1cc(C(=O)c2nnc(N)s2)cc(C(C)(C)C)c1O` [Example 29, (5-Amino-1,3,4-thiadiazol-2-yl)[3,5-bis(1,1-dimethylethyl)-4-hydroxyphenyl]methanon], the IC50 came to 5200 nM on Cyclooxygenase and 1100 nM at 5-Lipoxygenase.
As to `CC(C)(C)c1cc(Sc2n[nH]c(=O)o2)cc(C(C)(C)C)c1O` [Example 6, 5-[[3,5-Bis(1,1-dimethylethyl)-4-hydroxyphenyl]thio]-1,3,4-oxadiazol-2(3H)-one], on Cyclooxygenase (@ 16 (as printed in the cell), A23187), the “ARBC: Percent inhibition of PGF2α” value is 46%. The inhibition at 16 µM at 5-Lipoxygenase turned out to be 91%.
As for `CC(C)(C)c1cc(SCCc2n[nH]c(=S)o2)cc(C(C)(C)C)c1O` [Example 14, 5-[2-[3,5-Bis(1,1-dimethylethyl)-4-hydroxyphenyl]thio]ethyl-1,3,4-oxadiazole-2(3H)-thione], on 5-Lipoxygenase, the IC50 was determined as 4200 nM.
Regarding `CC(C)(C)c1cc(SCCc2n[nH]c(=O)o2)cc(C(C)(C)C)c1O` [Example 13, 5-[2-[[3,5-Bis(1,1-dimethylethyl)-4-hydroxyphenyl]thio]ethyl]-1,3,4-oxadiazol-2(3H)-one], the inhibition at 10 µM at Cyclooxygenase (A23187) was determined as 75%. In addition, the half-inhibitory concentration (IC50) at 5-Lipoxygenase is 600 nM.
On to `CC(C)(C)c1cc(C(=O)c2n[nH]c(=S)s2)cc(C(C)(C)C)c1O` [Example 31, [3,5-Bis(1,1-dimethylethyl)-4-hydroxphenyl][5(4H)-thioxo-1,3,4-thiadiazol-2-yl]methanone], for which the inhibition at 10 µM on Cyclooxygenase (A23187) was 92%; at 5-Lipoxygenase, 100%.
As for `CC(C)(C)c1cc(Sc2n[nH]c(=S)s2)cc(C(C)(C)C)c1O` [Example 9, 5-[[3,5-Bis(1,1-dimethylethyl)-4-hydroxyphenyl]thio]-1,3,4-thiadiazole-2(3H)-thione], the figures for the IC50 at Cyclooxygenase and at 5-Lipoxygenase were 3600 nM and 1100 nM, respectively.
Regarding `CC(C)(C)c1cc(SCCc2nnc(N)o2)cc(C(C)(C)C)c1O` [Example 16], the inhibition at 10 µM on 5-Lipoxygenase turned out to be 100%.

Usually IC50 stands for the concentration at which inhibition is half-maximal. One may read the inhibition as the relative decrease from the control value, in per cent.
